This is an account of results in patent publication US20090211893A1, “Photo-Activatable Amino Acids” (priority 2005, published 2009).

For series [1], the system named is COS7 cells. Nature of the series: Cell viability by trypan blue exclusion. Format: cell-based, monkey. Conditions: LM-2 medium supplement; percent ± SD of viable cells (n = 6). An excerpt:
(§1) Unnatural amino acids frequently are toxic to cells. To find out if this is the case for photo-amino acids of the invention, we monitored in COS7 cells protein biosynthesis by incorporation of [^3H]Phe and viability by trypan blue exclusion of cells grown in the presence or absence of the photo-amino acids photo-Leu, photo-Met and photo-Ile. Due to the lack of two essential amino acids in the growth medium, protein biosynthesis is reduced to about 65% of that in a full growth medium. […] Although cells grew slightly slower than in full growth medium, viability (Table 2) and cell morphology (not shown) were unaffected.

Series [2] deals with E. coli beta-galactosidase. The series can be described thus: Activity of beta-galactosidase expressed in cells grown with photo-amino acids. Format: cell-based, monkey. Conditions: COS 7 cells, 20 h in LM-2 with photo-amino acid; percent ± SD (n = 6) of value in DMEM + FCS. An excerpt: We furthermore tested, whether proteins produced by cells grown with photo-amino acids are functional or not. For that, we transfected cells with GFP-fusion constructs of the small GTPase Rab5 and of mutated Rab5 that is constitutively activated (GFP-Rab5QL) or dominant negative (GFP-Rab5SN)^19 and monitored the GFP fluorescence by confocal microscopy. Four hours after transfection, when cells were switched to media containing photo-amino acids, no GFP signal was detectable (see FIG. 7). […] Both, staining intensity and localization were unaffected by the presence of either of the photo-amino acids. Taking into account a frequency of substitution of photo-Met for Met of 35% (see below) and the amounts of Met in Rab5 and GFP, more than 80% of the fusion protein will have photo-Met in both the Rab5- and the GFP-part of the fusion, more than 99% in at least one of the two parts. […] To corroborate this with a quantitative assay, we measured the activity of beta-galactosidase that was expressed in the absence or presence of photo-amino acids (see Table 4). Activity in LM-2 labeling medium was 79% of that in full DMEM. The addition of either of the three photo-amino acids or of a mixture of photo-Met and photo-Leu had no significant additional effect. E. coli beta-galactosidase contains 23 methionines of which on average 8 would be replaced by photo-Met; less than 0.01% of the protein are expected to have no substitution by photo-Met. We conclude that photo-amino acids are non-toxic to cultivated mammalian cells and can, at least partially, functionally replace branched chain amino acids and methionine.

The subject of another series is HA-tagged human PGRMC1. The series can be described thus: Competition of PGRMC1 cross-linking by natural amino acids. Type of series: cell-based. Conditions: 3 mM competing amino acid, COS7 cells in LM-4. As to the method:
FIG. 4: Specificity of incorporation and cross-linking by photo-Met and photo-Leu. COS7 cells were transfected with HA-tagged human PGRMC1 and were grown in LM-4 in the absence or presence of photo-Leu (A) or photo-Met (B) with addition of 3 mM of the indicated competing amino acid. cross-linked products formed after UV-irradiation were detected by SDS-PAGE followed by western blotting against the HA-epitope. (C) COS7 cells were grown in the presence of 1.7 mM [1-^14C]photo-Met, a constant trace amount of [^3H]Phe and 3 mM of competing unlabeled amino acids as indicated in the legend. Protein was precipitated and protein-bound radioactivity was determined by scintillation counting. […] The control value obtained in the absence of competing amino acid (con) is set to 100. Data are average±SD of triplicate determinations.
If so, addition of the complementary naturally occurring amino acid should strongly reduce incorporation and inhibit photo-crosslinking. […] To find out if competition for cross-linking reflects competition for incorporation, we competed incorporation of [1-^14C]photo-Met with the same set of amino acids (FIG. 4c). […] It should be noted that Met, Val, Leu and Ile all are transported into cells by the L-type transport system^25, which presumably also transports the three photo-amino acids. The strong difference in competition by Met and Leu versus Val and Ile excludes competition at the level of uptake.

The test system of series [3] is COS7 cells. Nature of the series: Cell viability after UV irradiation by trypan blue exclusion. Type of series: cell-based, monkey. As to the method: COS7 (monkey kidney) cells were grown in DMEM high glucose (Gibco no. 11995; with L-glutamine and Na-pyruvate)+10% FCS. Typically, 3 cm2 of cells are needed for a cross-linking experiment with detection by western blotting. At about 70%, medium was replaced by LM-4 (DMEM lacking Met, Leu, Ile and Val and phenol red, supplemented with 5% dialyzed FCS) or by LM-2 (LM-4+1 mM of each Ile and Val). Photo-amino acids were added to a final concentration of 4 mM photo-Leu and photo-Ile, 1.7 mM photo-Met and cells were cultivated for further 22 h followed by washing with PBS and UV-irradiation using a 200 W high pressure mercury lamp (Oriel Photomax) with a glass filter to remove wavelengths shorter 310 nm. The samples were placed at a distance of 38 cm to the light source, corresponding to a illuminated area of 105 mm diameter. […] We used an irradiation time 1-3 min for experiments with living cells. […] Lysis of cells, SDS-PAGE and western blotting were done as described^33. For immunoprecipitation, cells were lysed in 20 mM Hepes/NaOH pH 7.4, 100 mM NaCl, 5 mM EDTA, 1% Triton X 100, 0.5% sodium deoxycholate, the lysate was cleared with protein-A beads and incubated with beads that were preincubated with polyclonal anti-myc or anti-HA antibody. Beads were collected and washed three times each with 20 mM Hepes/NaOH pH 7.25, 0.5% CHAPS and with 100 mM Tris-HCl pH 8.3, 150 mM NaCl, 2 mM EDTA, 0.1% w/v SDS, 0.5% w/v Nonidet P40, 0.5% w/v sodiumdeoxycholate. Proteins were eluted from beads by heating with reducing SDS-PAGE sample buffer.
as §1

Another series relates to caveolin-1. The series can be described thus: Photo-crosslinking of transfected caveolin-1 in COS7 cells. The conditions noted are these: irradiated samples, COS7 cells in LM-4. Type of series: cell-based, human. The method, then:
FIG. 3: Photo-crosslinking induced by photo-amino acids. COS7 cells (panels a,b) or HeLa cells (panel c) were grown in LM-4 (panel a) or LM-2 (panels b,c) in the absence or presence of L-photo-Leu (pL), L-photo-Met (pM) or DL-photo-Ile (pl) or mixtures of them (pLM or PLMI) followed by UV irradiation (+) or no irradiation (−). cross-linked products formed after UV-irradiation were detected by SDS-PAGE followed by western blotting using (a) anti-caveolin 1 to detect overexpressed caveolin 1, (b) anti-stomatin to detect endogenous stomatin or (c) anti-EEA1 to detect endogenous EEA1. In panel b, lanes 8 and 9 show cross-linking with two different concentrations of the chemical cross-linker DSS for comparison of cross-linking efficiency. In panel c, photocrosslinking of endogenous EEA1 by photo-Leu and photo-Met is compared to chemical cross-linking using DSS or para-formaldehyde (PFA) as indicated. Note that chemical cross-linking leads to protein aggregates that are not resolvable by SDS-PAGE while photocrosslinking identifies more than six discrete cross-linked bands.
COS7 (monkey kidney) cells were grown in DMEM high glucose (Gibco no. 11995; with L-glutamine and Na-pyruvate)+10% FCS. Typically, 3 cm2 of cells are needed for a cross-linking experiment with detection by western blotting. At about 70%, medium was replaced by LM-4 (DMEM lacking Met, Leu, Ile and Val and phenol red, supplemented with 5% dialyzed FCS) or by LM-2 (LM-4+1 mM of each Ile and Val). Photo-amino acids were added to a final concentration of 4 mM photo-Leu and photo-Ile, 1.7 mM photo-Met and cells were cultivated for further 22 h followed by washing with PBS and UV-irradiation using a 200 W high pressure mercury lamp (Oriel Photomax) with a glass filter to remove wavelengths shorter 310 nm. The samples were placed at a distance of 38 cm to the light source, corresponding to a illuminated area of 105 mm diameter. […] We used an irradiation time 1-3 min for experiments with living cells. […] Lysis of cells, SDS-PAGE and western blotting were done as described^33. […]

Series [4] has as its system COS7 cells. Nature of the series: Cell viability after UV irradiation by trypan blue exclusion. Format: cell-based, monkey. This is another data set of the same source.
For series [5], the system named is COS7 cells. Nature of the series: Protein biosynthesis by incorporation of [3H]Phe. Format: cell-based, monkey. Conditions: for Protein synthesis: LM-2 medium supplement, value in full DMEM medium set to 100, average ± SD of triplicate; for effect on protein biosynthesis: addition to LM-2 medium.
Source text: as §1

In the case of `CC1(CC(N)C(=O)O)N=N1` [photo-Leu, L-2-amino-4,4′-azi-pentanoic acid], the Cell viability with COS7 cells [1] is 99.8 ± 0.2%; in the series on COS7 cells [3] (1 min UV) it was 99.5 ± 0.2%; in the series on COS7 cells [3] (1 min UV + 1 h chase) it was 95.5 ± 3.0%; with COS7 cells [3] (3 min UV) it was 99.6 ± 0.2%; in the series with COS7 cells [3] (3 min UV + 1 h chase), 95.3 ± 1.8%; with COS7 cells [3] (no UV + 1 h chase at 37 degree Celsius in PBS), 99.3 ± 0.5%. Besides, the Cell viability worked out at 99.5 ± 0.3% in the series on COS7 cells [3] (no UV, percent ± SD of viable cells); 99.5 ± 0.3% with COS7 cells [4] (10 min UV); 91.5 ± 4.0% in the series on COS7 cells [4] (10 min UV + 1 h chase); 98.8 ± 0.4% with COS7 cells [4] (30 min UV); 17.9 ± 3.2% in the series with COS7 cells [4] (30 min UV + 1 h chase). Further, the beta-galactosidase activity in series [2] is recorded as 68 ± 9%. Besides, the “competition of cross-linking by Met, Val, Leu and Ile” value in the series with HA-tagged human PGRMC1 is on record as “competed mainly by Leu”. In addition, in the series with caveolin-1, the “formation of covalent caveolin dimers upon UV irradiation” value is “significant formation of a cross-linked dimer”. In the series with COS7 cells [5], the Protein synthesis is given as 61.5 ± 1.7. The “effect on protein biosynthesis” value in the series with COS7 cells [5] is given as “no significant effect”.

Molecule `CC(C(N)C(=O)O)C1(C)N=N1` (stereo not drawn) [photo-Ile, 2R,S-Amino-3-R,S-methyl-4,4′-azi-pentanoic acid] gave a Cell viability with COS7 cells [1] of 99.6 ± 0.3%. Moreover, the beta-galactosidase activity in series [2] turned out to be 93 ± 9%. The “formation of covalent caveolin dimers upon UV irradiation” value with caveolin-1 was “very little cross-linking”. For the same molecule, in the series on COS7 cells [5], the Protein synthesis came to 62.8 ± 2.8 and the “effect on protein biosynthesis” value is reported as “no significant effect”.
